In a melting point compilation (Tetko et al.; mined from patent text by program, amines drawn as free bases though some values may be those of a salt) one finds melting point data, which are given here for 88 compounds.

For orientation: melting point means the temperature, or range, at which the solid turns liquid.

`COc1ccc2c(c1)C(=O)C(C(=O)O)C(c1ccccc1)=N2` (stereo not drawn) displayed a melting point of more than 300 °C.

As for `CCCn1cc(CN(C(=O)C2CCCc3c(O)cccc32)c2ccc(C(C)C)cc2)cn1` (stereo not drawn), the melting point worked out at 161 °C.

For the compound `O=C1NC(CO)Cc2c[nH]c3cccc1c23` (stereo not drawn), the melting point lay within 186 to 187 °C.

As for `Nc1c(SC(F)(F)F)c(C(=O)O)nn1-c1c(Cl)cc(C(F)(F)F)cc1Cl`, the melting point was 199 °C.

With `COC(=O)c1ncoc1-c1ccc([N+](=O)[O-])cc1Cl`, the melting point is 121 to 122 °C.

With `O=C(O)c1ccc(COc2ccccc2-c2cc(O)c(SCCc3ccccc3)c(=O)o2)cc1`, the melting point came out at 227 °C.

`COc1ccc(-c2cc(=O)c3ccc(OCC(O)CN4CCN(c5ccccc5)CC4)cc3o2)cc1OC` (stereo not drawn): the melting point lay in the range of 191 to 193 °C.

In turn, `COC(=O)c1ccc(CN(O)Cc2ccc(C(=O)OC)cc2)cc1` gave a melting point of 129 to 131 °C.

In the case of `CCOC(=O)c1cc2ccc(Oc3ccc(N)cc3)cc2oc1=O`, the melting point fell in the range of 136 to 138 °C.

Turning to `COc1ccc(C(=O)Nc2ccccc2)cc1NC(=S)Nc1ccc([N+](=O)[O-])cc1`, the melting point is 183 to 184 °C.

In turn, `CCOc1c(-c2ccc(F)cc2)c(=O)c1=O` had a melting point of 126 to 129 °C.

In turn, `Cc1ccc(-c2cccnc2N2CCC(C(=O)O)CC2)cc1C(=O)NCC12CC3CC(CC(C3)C1)C2` yielded a melting point of 60 °C.

Compound `CSC1=C([N+](=O)[O-])CN(Cc2ccccc2)CN1` had a melting point of 173 to 174 °C.

Compound `Cc1cc(Oc2ccc([N+](=O)[O-])cc2)n[nH]1` registered a melting point of 124 to 125 °C.

In the case of `Cc1cccc(NC(=O)NCC(=O)N(CC(=O)Nc2ccc3c(c2)CCC3)c2ccccc2)c1`, the melting point came to 210 °C.

In turn, `CC(C)(NCc1ncc[nH]1)c1ccc(Cl)cc1` displayed a melting point of 164 to 165 °C.

Regarding `Cc1c(Cl)c2c(c3oc4ccccc4c(=O)c13)CC(C(=O)O)O2` (stereo not drawn), the melting point fell in the range of 284 to 287 °C.

In turn, `Nc1c(Cl)cc(C(O)CNC2CC2)cc1C(F)(F)F` (stereo not drawn) displayed a melting point of 138 to 139 °C.

`CCCCN(Sc1nc2ccccc2s1)C(C)(C)C` displayed a melting point of 55 to 56 °C.

With `O=C(O)CCCc1cc2nc(Cl)ccc2n1S(=O)(=O)c1cccc2nccnc12`, the melting point turned out to be 74 °C.

`Nc1ccc(OC(F)F)cc1[N+](=O)[O-]` showed a melting point of 68 to 70 °C.

`COc1cc(OC)nc(NC(=O)NS(=O)(=O)c2ccccc2CN2CN=CN2)n1` registered a melting point of 219 to 220 °C.

`CCC(C)(C)c1ccc(OCC(=O)Nc2cccc(C(=O)Nc3[nH]n(-c4c(Cl)cc(Cl)cc4Cl)c(=O)c3Br)c2)c(C(C)(C)CC)c1` yielded a melting point of 139 to 141 °C.

For the compound `CCOC(=O)c1cc2c(C)c(OCc3ccccc3)ccc2n1C`, the melting point was in the range of 100 to 101 °C.

The compound `CC1Sc2nc3c(cnn3C)c(=O)n2C1C` (stereo not drawn) had a melting point of 168 to 170 °C.

`CCOc1cc(-c2ccc(S(C)(=O)=O)cc2)c(-c2ccc(F)cc2)c(C(F)(F)F)n1` yielded a melting point of 168 to 170 °C.

As for `CC1=CN(C)C2=NC(C)N(c3ccc(C#N)cc3)C2=C1` (stereo not drawn), the melting point is 260 to 262 °C.

Compound `N#CC1Cc2ccc(Nc3ccncc3N)cc2C1` (stereo not drawn) showed a melting point of 98 to 100 °C.

In the case of `O=C(CN1CCC(n2c(=O)[nH]c3ccccc32)CC1)Nc1ccc(C2CCCCC2)cc1`, the melting point was in the range of 130 to 132 °C.

On to `CC1CCN(S(=O)(=O)Nc2cc(C(c3cc(F)ccc3F)S(=O)(=O)c3ccc(Cl)cc3)c(Cl)cn2)CC1` (stereo not drawn), for which the melting point was in the range of 215 to 218 °C.

The compound `Nc1ccc(C(=O)NNC(=O)CCCCN2CCC(Cc3ccccc3)CC2)cc1` came in with a melting point of 163 to 165 °C.

The compound `COCn1cc2cc(C)c(NC(=O)c3cc(OC)nn3-c3ncccc3Cl)c(C(=O)NC(C)C)c2n1` registered a melting point of 148 °C.

The compound `CN(C)c1ccc(/C=C/c2nc3cc(Cl)ccc3s2)cc1` gave a melting point of 182 to 184 °C.

Turning to `COc1cc(OC)nc(Sc2nccc(-c3ccc(Cl)cc3)c2C(=O)O)n1`, the melting point is 219 to 223 °C.

`CCCCCCCCCCCCCCCCCCS(=O)(=O)c1cc(C(=O)O)c([N+](=O)[O-])c(C(=O)O)c1` registered a melting point of 203 to 205 °C.

`C=Cc1cccc(N2CC(CNC(=O)OC(C)(C)C)C2)n1` came in with a melting point of 85 to 87 °C.

`CN(C)CCOCc1ccc2[nH]nc(S(=O)(=O)c3cccc4ccccc34)c2c1` came in with a melting point of more than 200 °C.

`CCOC(=O)c1ccc2cc(N=[N+]=[N-])ccn2c1=O` showed a melting point of 145 to 150 °C.

`CN(C)S(=O)(=O)Cc1ccccc1C(=O)O` gave a melting point of 112 to 119 °C.

For the compound `Cc1ccccc1C(=O)Nc1ccc(C(=O)N2CCc3cn(C)nc3-c3ccccc32)cc1`, the melting point fell in the range of 246 to 248 °C.

With `Cn1ncnc1COc1nn2c(-c3ccc(F)cc3F)nncc2c1-c1ccccc1F`, the melting point was 164 to 166 °C.

Take `N#CC1=C(C2CCNCC2)Nc2n[nH]cc2C1c1ccccc1Cl` (stereo not drawn): the melting point came out at 221 °C.

`CC(=NNC(N)=O)c1ccc(Nc2nccc(-c3cccnc3)n2)cc1` showed a melting point of 256 to 258 °C.

In turn, `CSc1ccc(C2=C(c3ccc(C)cc3)CCC2)cc1` had a melting point of 64.5 to 66.5 °C.

Compound `CC(=O)Nc1ccc(C#CCCN2CC=C(c3ccccc3)CC2)nc1` registered a melting point of 158 to 160 °C.

`CCOP(=O)(OCC)C(O)c1ccc([N+](=O)[O-])cc1` (stereo not drawn) showed a melting point of 94 to 95 °C.

With `CCOC(=O)c1cn(CCF)c2cc(F)c(F)cc2c1=O`, the melting point was in the range of 178 to 180 °C.

The compound `CS(=O)c1ccc(-n2cnc3ccc(-c4nnc(C5CC5)o4)cc32)cc1` (stereo not drawn) returned a melting point of 243 to 245 °C.

In turn, `O=C(O)COc1cccc2c1CCc1sc(SCCC(c3ccccc3)c3ccccc3)nc1-2` gave a melting point of 128 to 130 °C.

In turn, `COc1cc(-c2cc(-c3ccccn3)no2)cc2oc(=O)c(C)c(C)c12` came in with a melting point of 193 °C.

On to `NC(=O)N(O)C[C@@H]1C[C@H]1c1cccc(Oc2ccncc2)c1` (relative stereo), for which the melting point was 130 to 132 °C.

Take `CN(Cc1cc(C(F)(F)F)cc(C(F)(F)F)c1)C(=O)c1ncc2ccccc2c1-c1ccc(F)cc1`: the melting point was 134 to 135 °C.

In turn, `CN1CCc2c(O)ccc(Cl)c2CC1` showed a melting point of 178 to 180 °C.

Compound `N=C(NC(=O)OCc1ccccc1)c1ccc(C(=O)NCCC(=O)NCCC(=O)OCc2ccccc2)cc1` gave a melting point of 165 to 166 °C.

The compound `COC(=O)C1=CC2=CCC3C(CCC4(C)C(C(=O)c5ccc(O)cc5)CCC34)C2(C)CC1` (stereo not drawn) yielded a melting point of 208 to 210 °C.

As to `CC(C)(C)N(Cc1ccccc1)CC(O)COc1cccc2c1CNC(=O)N2` (stereo not drawn), the melting point fell in the range of 215 to 217 °C.

Take `COCOc1ccccc1-c1cc(-c2cccc(C(=O)O)c2)c(C#N)c(NC(=O)c2cccs2)n1`: the melting point was in the range of 179 to 180 °C.

`c1cc2c3c(c1)Cc1c(ccc4c1OCO4)C3CNC2` (stereo not drawn): the melting point lay within 175 to 176 °C.

`O=C(Cl)N1CC(Oc2ccc(F)cc2)C1` yielded a melting point of 44 to 52 °C.

Turning to `COc1cc(CN2CCN(C[C@@H](C)O)CC2)ccc1-c1nc2c(N[C@H]3[C@@H](C(N)=O)[C@@H]4C=C[C@H]3C4)c(Cl)cnc2[nH]1`, the melting point is 157 to 159 °C.

Compound `O=Cc1ccc2c(c1)C(=O)OC2` showed a melting point of 134 °C.

The compound `CCN1CCN(CC(=O)NC2(c3ccc(Cl)cc3)C(=O)Nc3cc(C#N)cc(C(F)(F)F)c32)CC1` (stereo not drawn) showed a melting point of 260 to 262 °C.

On to `Cc1cc(C2OC(=O)NC2=O)c(C)o1` (stereo not drawn), for which the melting point is 144 to 145 °C.

As to `COC(=O)c1ccc(C=O)s1`, the melting point is 79 °C.

Take `CCc1cc2c(s1)-n1nc(C(=O)O)nc1CN=C2c1ccccc1Cl`: the melting point was in the range of 134 to 136 °C.

Turning to `CC(C)CNCc1cc2cc(NC(=O)c3ccc(OC[C@@H]4CCCO4)cc3)ccc2n1C`, the melting point fell in the range of 132 to 133 °C.

The compound `O=C(CCCNC(=O)c1ccc(OC(F)(F)F)cc1)CCCNC(=O)c1ccc(OC(F)(F)F)cc1` returned a melting point of 151 to 152 °C.

In turn, `COc1cc(NC(=O)CC#N)c(Cl)cc1Cl` displayed a melting point of 180 to 181 °C.

Consider `CCCCc1nc2ccccc2n1Cc1ccc(-c2ccccc2C=O)cc1`, for which the melting point was in the range of 117 to 118 °C.

On to `COc1ccc(C(=O)CCC(=O)O)cc1Cl`, for which the melting point was in the range of 187 to 189 °C.

Consider `NC(=O)C(NC(=O)OCc1ccccc1)C(O)CO` (stereo not drawn), for which the melting point is 175 to 176 °C.

`CC(C)S(=O)(=O)Nc1cccc2c3c([nH]c12)C(=O)CCC3`: the melting point fell in the range of 267 to 268 °C.

Regarding `COc1ccc(/C=C/C(=O)Nc2cc3ccccc3cc2C(=O)O)cc1OC`, the melting point lay in the range of 212 to 213 °C.

On to `O=[N+]([O-])c1cc(F)ccc1OC1CCC(O)CC1` (stereo not drawn), for which the melting point turned out to be 151 °C.

Regarding `CC(=O)Nc1ccc2c(c1)NCC(CN(C)C)C2` (stereo not drawn), the melting point lay within 118 to 123 °C.

`COC(=O)c1ccc(Cc2cccc3ccc(C#N)cc23)c(OC)c1` yielded a melting point of 138 to 140 °C.

`CCCCc1nc(SC)cn1Cc1ccc(-c2ccccc2S(=O)(=O)N=CN(C)C)cc1` displayed a melting point of 148 °C.

`N#Cc1ccc(-c2sc(N)c(C(=O)c3ccc(Cl)cc3)c2CN(C2CCCCC2)C2CCCCC2)cc1` registered a melting point of 196 to 200 °C.

The compound `Nc1ccc(OCCN2CCN(c3nsc4ccccc34)CC2)cc1` registered a melting point of 128 °C.

On to `CSc1ccc(C(=O)c2cc(C)cc3c2NC(=O)C3)cc1`, for which the melting point fell in the range of 176 to 178 °C.

Compound `CCCCCCCCN=C=O` displayed a melting point of 60 to 62 °C.

Take `O=[N+]([O-])c1ccc(OC2CCN(c3ccncc3)CC2)cc1`: the melting point was determined as 142 °C.

As for `Cc1cc(Cl)c2[nH]nc(-c3ccc(Cl)cc3)c2n1`, the melting point was in the range of 243 to 245 °C.

In turn, `COc1ccc(C(=O)Nc2c(Cl)cncc2Cl)c2c1oc1ccc(NC(=O)C(F)(F)F)cc12` came in with a melting point of more than 300 °C.

On to `CC1Cc2cc3c(cc2C(c2ccc([N+](=O)[O-])cc2)=NN1c1nc(=O)n(C2CC2)s1)OCO3` (stereo not drawn), for which the melting point was in the range of 246 to 247 °C.

Consider `CCOCCOC(=O)c1cc2cc(Br)ccc2nn1`, for which the melting point fell in the range of 128 to 130 °C.

Consider `CCC(=S)C1Cc2c(OC)ccc(OC)c2CO1` (stereo not drawn), for which the melting point worked out at 99.2 °C.

The compound `Cc1ccc(N=CN(C)C=Nc2ccccn2)c(C)c1` showed a melting point of 100 °C.
